Experimental data: ChEMBL document CHEMBL2169878 (J Med Chem, 2012)
Calls of active or inactive are those of the source. No cut-off for these calls is given here.

Experiments:
Plasma = assay: Drug uptake in CD1 albino mouse plasma at 50 mg/kg, po up to 48 hrs; type: ADME, organism-based; set-up: dose 50 mg/kg, route oral; settings: in vivo
[1] = Elimination half life in CD1 albino mouse plasma at 50 mg/kg, po measured from 6 to 48 hrs post-dosing; type: ADME, organism-based; set-up: dose 50 mg/kg, route oral; settings: read-out: beta t1/2 (converted)
[2] = Ratio of drug uptake in blood to plasma in CD1 albino mouse; type: ADME; settings: whole blood and plasma
Liver [3] = assay: Drug uptake in CD1 albino mouse liver at 50 mg/kg, po at 2 to 6 hrs; type: ADME, organism-based; set-up: dose 50 mg/kg, route oral; settings: in vivo
Liver [4] = assay: Drug uptake in CD1 albino mouse liver at 50 mg/kg, po at 6 to 48 hrs; type: ADME, organism-based; set-up: dose 50 mg/kg, route oral; settings: in vivo
Heart [5] = assay: Cardiotoxicity against Sprague-Dawley rat Langendorff perfused heart assessed as heart rate at 10 uM by electrophysiological analysis (reference value: 236.68 7.83 bpm); type: toxicity, tissue-based
Salmonella typhimurium [6] = assay: Mutagenicity against Salmonella typhimurium TA98 assessed as revertants at 12 uM incubated for 90 mins followed by drug washout measured after 2 days relative to positive control; type: toxicity, organism-based; settings: salmonella enterica subsp. enterica serovar typhimurium
Salmonella typhimurium [7] = assay: Mutagenicity against Salmonella typhimurium TA100 assessed as revertants at 3 uM incubated for 90 mins followed by drug washout measured after 2 days relative to positive control; type: toxicity, organism-based; settings: salmonella enterica subsp. enterica serovar typhimurium, 1.5 h
Salmonella typhimurium [8] = assay: Mutagenicity against Salmonella typhimurium TA100 assessed as revertants at 12 uM incubated for 90 mins followed by drug washout measured after 2 days relative to positive control; type: toxicity, organism-based; settings: salmonella enterica subsp. enterica serovar typhimurium
Salmonella typhimurium [9] = assay: Mutagenicity against Salmonella typhimurium TA100 assessed as revertants at 48 uM incubated for 90 mins followed by drug washout measured after 2 days relative to positive control; type: toxicity, organism-based; settings: salmonella enterica subsp. enterica serovar typhimurium
Heart [10] = assay: Cardiotoxicity against Sprague-Dawley rat Langendorff perfused heart assessed as PQ prolongation-induced atrioventricular block at 30 uM by electrophysiological analysis; type: toxicity, tissue-based
[11] = (§1) Cardiotoxicity against Sprague-Dawley rat Langendorff perfused heart assessed as reduction in left ventricular pressure by electrophysiological analysis; type: toxicity, tissue-based; settings: Sprague-Dawley, Langendorff perfused heart
Heart [12] = assay: as §1; type: toxicity, tissue-based
Heart [13] = assay: Cardiotoxicity against Sprague-Dawley rat Langendorff perfused heart assessed as QTc time interval at 1 uM by electrophysiological analysis (reference value: 145.78 10.53 ms); type: toxicity, tissue-based
Heart [14] = assay: Cardiotoxicity against Sprague-Dawley rat Langendorff perfused heart assessed as QTc time interval at 10 uM by electrophysiological analysis (reference value: 145.78 10.53 ms); type: toxicity, tissue-based
Heart [15] = assay: Cardiotoxicity against Sprague-Dawley rat Langendorff perfused heart assessed as QTc time interval at 0.1 uM by electrophysiological analysis (reference value: 145.78 10.53 ms); type: toxicity, tissue-based
Heart [16] = assay: Cardiotoxicity against Sprague-Dawley rat Langendorff perfused heart assessed as QT time interval at 10 uM by electrophysiological analysis (reference value: 73.01 4.52 ms); type: toxicity, tissue-based
Heart [17] = assay: Cardiotoxicity against Sprague-Dawley rat Langendorff perfused heart assessed as QT time interval at 0.1 uM by electrophysiological analysis (reference value: 73.01 4.52 ms); type: toxicity, tissue-based
Heart [18] = assay: Cardiotoxicity against Sprague-Dawley rat Langendorff perfused heart assessed as intraventricular conduction time at 30 uM by electrophysiological analysis (reference value: 13.92 0.42 ms); type: toxicity, tissue-based
Heart [19] = assay: Cardiotoxicity against Sprague-Dawley rat Langendorff perfused heart assessed as atrioventricular conduction time at 1 uM by electrophysiological analysis (reference value: 42.67 2.29 ms); type: toxicity, tissue-based
Heart [20] = assay: Cardiotoxicity against Sprague-Dawley rat Langendorff perfused heart assessed as cycle length time at 30 uM by electrophysiological analysis (reference value: 258.62 8.87 ms); type: toxicity, tissue-based
Heart [21] = assay: Cardiotoxicity against Sprague-Dawley rat Langendorff perfused heart assessed as cycle length time at 10 uM by electrophysiological analysis (reference value: 258.62 8.87 ms); type: toxicity, tissue-based
Plasmodium falciparum = assay: Antiplasmodial activity against chloroquine-resistant Plasmodium falciparum K1 infected in human erythrocytes assessed as inhibition of [3H]hypoxanthine incorporation incubated for 48 hrs prior to [3H]hypoxanthine addition measured after 48 hrs by liquid scintillation counting; type: functional, organism-based
[22] = Inhibition of beta hematin formation assessed as molar equivalent of the compound required to inhibit 50 % beta-hematin formation after 18 hrs by spectrophotometric microassay relative to hemin; type: functional
Plasmodium berghei [23] = assay: Antimalarial activity against Plasmodium berghei ANKA expressing GFP infected in mouse assessed as reduction in parasitemia at 50 mg/kg, po administered QD for 3 days measured 24 hrs post-final dosing by flow cytometric analysis; type: functional; set-up: scale not given: the % may be the effect or the level left
Plasmodium berghei [24] = assay: Antimalarial activity against Plasmodium berghei ANKA expressing GFP infected in mouse assessed as reduction in parasitemia at 30 mg/kg, po administered QD for 3 days measured 24 hrs post-final dosing by flow cytometric analysis; type: functional; set-up: scale not given: the % may be the effect or the level left
Plasmodium berghei [25] = assay: Antimalarial activity against Plasmodium berghei ANKA expressing GFP infected in mouse assessed as mean survival days at 50 mg/kg, po administered QD for 3 days (reference value: 6 to 7 days); type: functional
Plasmodium berghei [26] = assay: Antimalarial activity against Plasmodium berghei ANKA expressing GFP infected in mouse assessed as cure from infection at 100 mg/kg, po administered 24 hrs post-infection measured on day 30; type: functional, organism-based; set-up: dose 100 mg/kg
Plasmodium berghei [27] = assay: Antimalarial activity against Plasmodium berghei ANKA expressing GFP infected in mouse assessed as cure from infection at 30 mg/kg, po administered QD for 3 days measured on day 30; type: functional, organism-based; set-up: dose 30 mg/kg
Plasmodium berghei [28] = assay: Antimalarial activity against Plasmodium berghei ANKA expressing GFP infected in mouse assessed as cure from infection at 30 mg/kg, po administered at 6,24,48 and 72 hrs post-infection measured on day 30; type: functional, organism-based; set-up: dose 30 mg/kg
[29] = molecular target: T1, Chloroquine resistance transporter (Plasmodium falciparum) (UniProt Q9N623); assay: Inhibition of chloroquine-sensitive Plasmodium falciparum D10 CRT expressed in Xenopus laevis oocyte assessed as inhibition of [3H]chloroquine uptake at 100 uM measured from 1 to 2 hrs
T1 sequence (whole entry): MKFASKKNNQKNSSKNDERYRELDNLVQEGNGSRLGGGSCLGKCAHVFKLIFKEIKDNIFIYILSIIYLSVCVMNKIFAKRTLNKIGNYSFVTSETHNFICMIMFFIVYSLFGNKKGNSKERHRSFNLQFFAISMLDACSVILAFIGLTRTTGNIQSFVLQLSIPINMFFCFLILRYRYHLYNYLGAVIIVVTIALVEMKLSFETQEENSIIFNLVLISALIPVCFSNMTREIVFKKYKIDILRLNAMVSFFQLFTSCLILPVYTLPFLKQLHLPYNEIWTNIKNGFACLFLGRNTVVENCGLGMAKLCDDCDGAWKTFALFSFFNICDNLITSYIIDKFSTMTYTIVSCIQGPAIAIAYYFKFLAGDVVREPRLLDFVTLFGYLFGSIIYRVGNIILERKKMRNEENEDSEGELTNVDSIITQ

[30] = molecular target: Chloroquine resistance transporter (Plasmodium falciparum, UniProt Q9N623); assay: Inhibition of chloroquine-resistant Plasmodium falciparum Dd2 CRT expressed in Xenopus laevis oocyte assessed as inhibition of [3H]chloroquine uptake measured from 1 to 2 hrs
[31] = Cytotoxicity against human HepG2 cells after 24 hrs by neutral red dye uptake assay; type: cell-based; settings: read-out: TC50

SMILES: Clc1ccc(C(Nc2ccnc3cc(Cl)ccc23)c2ccc(CN3CCNCC3)cc2)cc1 (racemic)
- Drug uptake (Plasma): Active
- half-life [1]: 22 h
- blood plasma ratio [2]: 1.9
- Drug uptake (Liver [3]): Active
- Drug uptake (Liver [4]): Not Active
- Activity (Heart [5]): 216.05 bpm
- Activity (Salmonella typhimurium [6]): 4%
- Activity (Salmonella typhimurium [7]): 22%
- Activity (Salmonella typhimurium [8]): 17%
- Activity (Salmonella typhimurium [9]): 28%
- Activity (Heart [10]): Toxic
- IC50 [11]: 9.5 µM
- Activity (Heart [12]): Dose-dependent effect
- Time (Heart [13]): 151.17 ms
- Time (Heart [14]): 177.33 ms
- Time (Heart [15]): 145.15 ms
- Time (Heart [16]): 94.5 ms
- Time (Heart [17]): 74 ms
- Time (Heart [18]): 22.67 ms
- Time (Heart [19]): 42.38 ms
- Time (Heart [20]): 317 ms
- Time (Heart [21]): 294 ms
- IC50 (Plasmodium falciparum): 0.022 µM
- inhibition [22]: Dose-dependent effect
- Activity (Plasmodium berghei [23]): 99.8%
- Activity (Plasmodium berghei [24]): 99.8%
- MSD (Plasmodium berghei [25]): 29.6 days
- Activity (Plasmodium berghei [26]): inactive
- Activity (Plasmodium berghei [27]): inactive
- Activity (Plasmodium berghei [28]): inactive
- inhibition [29]: inactive
- IC50 [30]: 10.3 µM
- CC50 at 24 h [31]: 1.8 µM
